From patent publication US9926275B2 (priority 2013, dated 2018) come the findings set out here.

Where only a bound is given, the exact number is not on record here.

In assay [1] the target is T1, CB1 receptor (Homo sapiens, UniProt P21554). As to the kind of experiment: β-arrestin recruitment in CNR1 PathHunter cell line, allosteric modulation of CP55,940 response. The assay is classed as cell-based. Conditions: for Emax: read-out: β-arrestin activity EMax (%). On the procedure: (§1) For allosteric determination, cells were preincubated with compound followed by agonist challenge at the EC20 concentration of the agonist. 5 μL of 4× compound was added to cells and incubated at 37° C. for 30 minutes. 5 μL of 4× EC20 agonist was added to cells and incubated at 37° C. for 30 minutes.
T1 sequence (P21554 whole entry): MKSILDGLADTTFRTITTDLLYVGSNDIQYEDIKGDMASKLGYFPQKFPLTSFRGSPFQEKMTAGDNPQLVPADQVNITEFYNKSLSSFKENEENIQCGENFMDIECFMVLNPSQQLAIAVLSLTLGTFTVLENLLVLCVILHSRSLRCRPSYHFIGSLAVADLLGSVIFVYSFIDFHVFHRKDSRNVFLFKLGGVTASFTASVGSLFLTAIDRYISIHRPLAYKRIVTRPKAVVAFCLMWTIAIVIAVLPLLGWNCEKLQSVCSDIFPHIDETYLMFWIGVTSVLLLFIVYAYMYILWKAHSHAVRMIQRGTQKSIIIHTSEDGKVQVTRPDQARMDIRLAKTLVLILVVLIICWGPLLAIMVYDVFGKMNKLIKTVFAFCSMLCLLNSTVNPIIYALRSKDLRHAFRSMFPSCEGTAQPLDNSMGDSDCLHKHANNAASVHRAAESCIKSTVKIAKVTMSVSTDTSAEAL
(§2) Data Analysis: Dose curves were plotted using GraphPad Prism or Activity Base. The percentage activity is calculated using the following formula: % Activity=100%×(1−(mean RLU of test sample−mean RLU of MAX control)/(mean RLU of vehicle control [EC20 for PAM]−mean RLU of MAXcontrol).
(§3) Agonist (CP55,940) dose curves were performed for the CNR1 PathHunter and cAMP Hunter cell lines. […] The cAMP assay was performed in the presence of 20 μM forskolin (EC80).
(§4) In Vitro Evaluation: The in vitro evaluation of the covalent allosteric modulators was performed using as described previously.
(In general: Arrestin recruitment assays detect the binding of arrestin to an activated receptor.)

In assay [2] the target is T1, CB1 receptor. Nature of the assay: DiscoveRx HitHunter cAMP XS+ assay in cAMP Hunter cell line, allosteric modulation of CP55,940 response. It is filed as cell-based. Conditions: for Emax: read-out: cAMP activity ECMax (%). On the procedure: Once it was established that the cells were healthy and growing normally, cells were passaged from flasks using cell dissociation reagent buffer and seeded into white walled clear bottom 384-well microplates for compound profiling. For profiling, cells were seeded at a density of 10000 cells per well in a total volume of 20 μL and were allowed to adhere and recover overnight prior to compound addition. Cells were treated the following day using the protocols shown below. cAMP modulation was determined using the DiscoveRx HitHunter cAMP XS+ assay.
Media was aspirated from cells and replaced with 10 μL 1:1 HBSS/Hepes: cAMP XS+ Ab reagent. Agonist (CP55,940) dose curves were performed to determine the EC20 value for the testing with the compounds of the present technology. 5 μL of 4× agonist was added to each well with an equal concentration of vehicle present. EC20 agonist concentration was determined directly from agonist dose curve.
as §1
Signal Detection: After appropriate compound incubation, assay signal was generated through incubation with 20 μL cAMP XS+ED/CL lysis cocktail for one hour followed by incubation with 20 μL cAMP XS+EA reagent for three hours at room temperature. Microplates were read following signal generation with a PerkinElmer Envision™ instrument for chemiluminescent signal detection.
as §2, §3, §4

Where [3] appears, read: Table 1, CP55,940 as agonist, read-out: β-arrestin EC50.
Where [4] appears, read: Table 1, preincubation with compound, then CP55,940 challenge, 20 μM forskolin.
Setting [5] is: Table 1, preincubation with compound, then CP55,940 challenge, 20 μM forskolin, read-out: cAMP EC50.
The mark [6] stands for this setting: Table 2, covalent allosteric modulators, read-out: β-arrestin activity EC50 (nm).
Where [7] appears, read: Table 2, covalent allosteric modulators, read-out: cAMP activity EC50 (nm).
Where [8] appears, read: Table 2, covalent allosteric modulators.

With `O=C(Nc1cccc(-c2cccc(N3CCCC3)n2)c1)Nc1ccc(Cl)cc1CCCCO` [Compound 24a, 1-(4-Chloro-2-(4-hydroxybutyl)phenyl)-3-(3-(6-(pyrrolidin-1-yl)pyridin-2-yl)phenyl)urea], the β-arrestin % inhibition at CB1 receptor [1] (Table 1, CP55,940 as agonist) is reported as 126%. Also, the EC50 was 276 nM on CB1 receptor [1] (setting [3]) and 1230 nM at CB1 receptor [2] (setting [5]). In addition, the cAMP % inhibition at CB1 receptor [2] (setting [4]) was 82%.
For `O=C(Nc1cccc(-c2cccc(N3CCCC3)n2)c1)Nc1ccc(Cl)c(CCCCO)c1` [Compound 24b, 1-(4-Chloro-3-(4-hydroxybutyl)phenyl)-3-(3-(6-(pyrrolidin-1-yl)pyridin-2-yl)phenyl)urea], the β-arrestin % inhibition at CB1 receptor [1] (Table 1, CP55,940 as agonist) worked out at 125%. Moreover, the EC50 on CB1 receptor [1] (setting [3]) turned out to be 1350 nM; on CB1 receptor [2] (setting [5]), 1420 nM. On CB1 receptor [2] (setting [4]), the cAMP % inhibition amounted to 111%.
For `CN(C(=O)Nc1ccc(Cl)cc1)c1cccc(-c2cccc(N3CCCC3)n2)c1` [Compound 27, 3-(4-Chlorophenyl)-1-methyl-1-(3-(6-(pyrrolidin-1-yl)pyridin-2-yl)phenyl)urea], in that order: 109%, 384 nM, 527 nM and 31%.
`CN(C(=O)N(C)c1cccc(-c2cccc(N3CCCC3)n2)c1)c1ccc(Cl)cc1` [Compound 28, 1-(4-Chlorophenyl)-1,3-dimethyl-3-(3-(6-(pyrrolidin-1-yl)pyridin-2-yl)phenyl)urea]: at CB1 receptor [1] (Table 1, CP55,940 as agonist), the β-arrestin % inhibition was determined as 62%. For the same molecule, the concentration giving a half-maximal response (EC50) on CB1 receptor [1] (setting [3]) was found to be 2330 nM; on CB1 receptor [2] (setting [5]) it was 1670 nM. Moreover, the cAMP % inhibition on CB1 receptor [2] (setting [4]) stood at 39%.
For `O=C(Nc1ccc(Cl)cc1)Oc1cccc(-c2cccc(N3CCCC3)n2)c1` [Compound 31, 3-(6-(Pyrrolidin-1-yl)pyridin-2-yl)phenyl (4-chlorophenyl)carbamate], the β-arrestin % inhibition on CB1 receptor [1] (Table 1, CP55,940 as agonist) came to 58%. Besides, the EC50 is 8660 nM on CB1 receptor [1] (setting [3]) and above 10000 nM at CB1 receptor [2] (setting [5]). For the same molecule, the cAMP % inhibition on CB1 receptor [2] (setting [4]) is listed as 8.8%.
The corresponding values for `S=C(Nc1ccc(Cl)cc1)Nc1cccc(-c2cccc(N3CCCC3)n2)c1` [Compound 32, 1-(4-Chlorophenyl)-3-(3-(6-(pyrrolidin-1-yl)pyridin-2-yl)phenyl)thiourea] are 110%, 276 nM, 830 nM and 77%.
For `N#C/N=C(/Nc1ccc(Cl)cc1)Nc1cccc(-c2cccc(N3CCCC3)n2)c1` [Compound 35, (Z)-1-(4-Chlorophenyl)-2-cyano-3-(3-(6-(pyrrolidin-1-yl)pyridin-2-yl)phenyl)guanidine], the β-arrestin % inhibition at CB1 receptor [1] (Table 1, CP55,940 as agonist) is 69%. In addition, the EC50 at CB1 receptor [1] (setting [3]) was determined as 3060 nM; on CB1 receptor [2] (setting [5]), 3340 nM. Also, the cAMP % inhibition on CB1 receptor [2] (setting [4]) is reported as 29%.
Take `Clc1ccc(Nc2nnc(-c3cccc(-c4cccc(N5CCCC5)n4)c3)o2)cc1` [Compound 42, N-(4-Chlorophenyl)-5-(3-(6-(pyrrolidin-1-yl)pyridin-2-yl)phenyl)-1,3,4-oxadiazol-2-amine]: the β-arrestin % inhibition at CB1 receptor [1] (Table 1, CP55,940 as agonist) came out at 31%. Also, the figures for the concentration for a half-maximal effect (EC50) on CB1 receptor [1] (setting [3]) and on CB1 receptor [2] (setting [5]) were 5850 nM and above 10000 nM, respectively. For the same molecule, on CB1 receptor [2] (setting [4]), the cAMP % inhibition amounted to 43%.
As for `Clc1ccc(-c2nnc(Nc3cccc(-c4cccc(N5CCCC5)n4)c3)o2)cc1` [Compound 45, 5-(4-Chlorophenyl)-N-(3-(6-(pyrrolidin-1-yl)pyridin-2-yl)phenyl)-1,3,4-oxadiazol-2-amine], the β-arrestin % inhibition at CB1 receptor [1] (Table 1, CP55,940 as agonist) came out at 70%. The values for the EC50 at CB1 receptor [1] (setting [3]) and at CB1 receptor [2] (setting [5]) were 3210 nM and 4050 nM, respectively. The cAMP % inhibition on CB1 receptor [2] (setting [4]) is 20%.
For `O=C(Nc1ccc(Cl)cc1)Nc1ccc(-c2cccc(N3CCCC3)n2)cc1` [Compound 51, 1-(4-Chlorophenyl)-3-(4-(6-(pyrrolidin-1-yl)pyridin-2-yl)phenyl)urea], in that order: 109%, 206 nM, above 10000 nM and 11%.
With `O=C(Nc1ccc(Cl)cc1)Nc1ccccc1-c1cccc(N2CCCC2)n1` [Compound 55, 1-(4-Chlorophenyl)-3-(2-(6-(pyrrolidin-1-yl)pyridin-2-yl)phenyl)urea], the β-arrestin % inhibition on CB1 receptor [1] (Table 1, CP55,940 as agonist) was 61%. Moreover, the values for the concentration giving a half-maximal response (EC50) at CB1 receptor [1] (setting [3]) and on CB1 receptor [2] (setting [5]) were 5860 nM and 3400 nM, respectively. Further, on CB1 receptor [2] (setting [4]), the cAMP % inhibition is given as 110%.
For `O=C(Nc1ccc(Cl)cc1)Nc1cccc(-c2ccnc(N3CCCC3)c2)c1` [Compound 57, 1-(4-Chlorophenyl)-3-(3-(2-(pyrrolidin-1-yl)pyridin-4-yl)phenyl)urea], in that order: 111%, 77 nM, 9790 nM and 50%.
For the molecule `O=C(Nc1ccc(Cl)cc1)Nc1cccc(-c2ccc(N3CCCC3)nc2)c1` [Compound 61, 1-(4-Chlorophenyl)-3-(3-(6-(pyrrolidin-1-yl)pyridin-3-yl)phenyl)urea], on CB1 receptor [1] (Table 1, CP55,940 as agonist), the β-arrestin % inhibition is 105%. For the same molecule, the results for the 50% effective concentration (EC50) at CB1 receptor [1] (setting [3]) and at CB1 receptor [2] (setting [5]) were 880 nM and above 10000 nM, respectively. In addition, the cAMP % inhibition at CB1 receptor [2] (setting [4]) was found to be 6%.
Turning to `O=C(Nc1ccc(Cl)cc1)Nc1cccc(-c2cccc(N3CCCC3)c2)c1` [Compound 64], the β-arrestin % inhibition at CB1 receptor [1] (Table 1, CP55,940 as agonist) worked out at 110%. The concentration giving a half-maximal response (EC50) at CB1 receptor [1] (setting [3]) was determined as 27 nM; on CB1 receptor [2] (setting [5]), 679 nM. Besides, the cAMP % inhibition on CB1 receptor [2] (setting [4]) stood at 84%.
The corresponding values for `O=C(Nc1ccc(Cl)cc1)Nc1cccc(-c2cccc(N3CCOCC3)n2)c1` [Compound 67a, 1-(4-Chlorophenyl)-3-(3-(6-morpholinopyridin-2-yl)phenyl)urea] are 111%, 124 nM, 564 nM and 88%.
The corresponding values for `O=C(Nc1ccc(Cl)cc1)Nc1cccc(-c2cccc(N3CCNCC3)n2)c1` [Compound 67b, 1-(4-Chlorophenyl)-3-(3-(6-(piperazin-1-yl)pyridin-2-yl)phenyl)urea] are 110%, 25 nM, 274 nM and 113%.
As to `CCc1c(C(=O)NCCc2ccc(N3CCCCC3)cc2)[nH]c2ccc(N=C=S)cc12` [GAT100], the values for the concentration giving a half-maximal response (EC50) at CB1 receptor [1] (setting [6]) and at CB1 receptor [2] (setting [7]) were 9.06 nM and 186 nM, respectively. For the same molecule, the Emax at CB1 receptor [1] amounted to 106%; at CB1 receptor [2], 89.4%.
Consider `O=C(Nc1ccc(I)cc1)Nc1cccc(-c2cccc(N3CCCC3)n2)c1` [GAT205], for which the half-maximal effective concentration (EC50) at CB1 receptor [1] (setting [6]) came to 11.5 nM; on CB1 receptor [2] (setting [7]) it was 253 nM. In addition, the Emax on CB1 receptor [1] (setting [8]) was determined as 105%; on CB1 receptor [2] (setting [8]), 102%.
For `CCc1c(C(=O)NCCc2ccc(N3CCCCC3)cc2)[nH]c2ccc(N=[N+]=[N-])cc12` [GAT206], in that order: 28 nM, 391 nM, 106% and 89%.
As to `O=C(NCCc1ccc(N2CCCCC2)cc1)c1[nH]c2ccc(Cl)cc2c1CCN=C=S` [GAT209], the EC50 on CB1 receptor [1] (setting [6]) is 225 nM; on CB1 receptor [2] (setting [7]), above 10000 nM. Besides, the Emax at CB1 receptor [1] was 104%; on CB1 receptor [2], 0%.
Regarding `O=C(Nc1ccc(C(=O)c2ccccc2)cc1)Nc1cccc(-c2cccc(N3CCCC3)n2)c1` [GAT300], the results for the EC50 at CB1 receptor [1] (setting [6]) and at CB1 receptor [2] (setting [7]) were 28.4 nM and 169 nM, respectively. Moreover, the values for the Emax at CB1 receptor [1] (setting [8]) and at CB1 receptor [2] (setting [8]) were 106% and 99.6%, respectively.
For `[N-]=[N+]=Nc1ccc(NC(=O)Nc2cccc(-c3cccc(N4CCCC4)n3)c2)cc1` [GAT331], in that order: 106 nM, 297 nM, 138% and 128%.
As for `O=C(Nc1ccc(N=C=S)cc1)Nc1cccc(-c2cccc(N3CCCC3)n2)c1` [GAT332], the figures for the EC50 on CB1 receptor [1] (setting [6]) and at CB1 receptor [2] (setting [7]) were 24 nM and 119 nM, respectively. Besides, the Emax was determined as 106% at CB1 receptor [1] and 78.9% at CB1 receptor [2].

Broadly, the EC50 is the midpoint of the concentration-response curve.
